Source: article PMC6620010, “Purification and characterization of Terfezia claveryi TcCAT-1, a desert truffle catalase upregulated in mycorrhizal symbiosis” (PLoS ONE, 2019)

Tested on: T1, TcCAT-1
T1 construct: native, purified from wild ascocarps (Zarzadilla de Totana, Lorca, Murcia, Spain); large-subunit monofunctional heme catalase, Clade 2, L2 group
Test: H2O2 decomposition at […] nm
Assay type: biochemical, Terfezia claveryi
Details: 10 mM H2O2, 0.1 M sodium phosphate pH 7.0, room temperature

| Compound | IC50 (text b58 prints 0.125 mM) | IC50 |
| --- | --- | --- |
| OCCS [2-mercaptoethanol] | 130 ± 20 µM | – |
| NO [hydroxylamine] | – | 0.1 ± 0.01 µM |
